Results: US6814966B1, “Methods for treating glaucoma” (Pharmacia Corporation, priority 2000, dated 2004)

System: retinal ganglion cells in co-cultures with glial cells
Assay: TUNEL apoptosis of retinal ganglion cells in co-cultures with glial cells under stress conditions
Assay type: cell-based, rat
Conditions: for decrease of rate of positive TUNEL: antibody 10 ug/ml, 1400W 2.5 uM
Procedure: Retinal ganglion cell cultures. Primary cultures of retinal ganglion cells were derived from newborn rat retinas using a protocol similar to that recently described^70. All experiments were performed in accordance with the ARVO Statement for the Use of Animals in Ophthalmic and Vision Research and were approved by The Animal Studies Committee of Washington University. Five to seven days old Sprague-Dawley rats were anesthetized and their eyes were enucleated. The eyes were rinsed with CO2-independent culture medium (Gibco, Grand Island, N.Y.) and retinas were mechanically dissected under a microscope. To prepare retinal cell suspensions, tissues were dissociated in Eagles's minimum essential medium containing 20 U/ml papain, 1 mM L-cystein 0.5 mM EDTA and DNase (0.005%) (Worthington, Lakewood, N.J.) at 37° C. for 40 minutes. Then, retinas were rinsed in an inhibitor solution containing Eagle's minimum essential medium, ovomucoid (0.2%) (US Biological, Swampscott, Mass.), DNAase (0.04%) and bovine serum albumin (0.1%) (Sigma, St. Louis, Mo.). At the end of treatment period, tissues were triturated through a 1 ml plastic pipette to yield a suspension of single cells. The retinal cells were spun at 400 g for 10 minutes, resuspended in Eagle's minimum essential medium containing bovine serum albumin (0.05%) and incubated in a tissue culture incubator until their immediate use for subsequent separation by immunomagnetic selection^71,72.
Immunomagnetic selection of the retinal ganglion cells was performed using magnetic, 2.8±0.2 um diameter, polystyrene beads coated with biotinylated rat monoclonal antibody against mouse IgG1 (Dynal, Oslo, Norway) in a two step process. In the first step, after washing with phosphate buffered saline solution containing 0.1% bovine serum albumin, 1×10^7 beads/ml were added to monoclonal antibody against macrophage surface antigens (100 ug/ml) (Sigma). After incubation at room temperature on a rotator for 30 minutes, beads were washed using a specially designed magnet (Dynal). […]

SMILES: CC(=N)NCc1cccc(CN)c1.Cl.Cl [1400W, N-(3-(aminomethyl)benzyl)acetamidine. dihydrochloride]
- decrease of rate of positive TUNEL (co-cultures under elevated hydrostatic pressure): approximately 35%
- decrease of rate of positive TUNEL (co-cultures under simulated ischemia): approximately 50%
- attenuation of retinal ganglion cell apoptosis (summary statement, simulated ischemia and elevated hydrostatic pressure, stressor not specified): ~50%
